Reference: PubChem BioAssay AID1259407 (Chemical Carcinogenesis Research Information System (CCRIS), 2018)
The source made the active and inactive calls. The rule behind the calls is not given here.

Tested on: CCRIS mutagenicity, Ames/micronucleus/aberration tests
Experiment: CCRIS mutagenicity studies
[1] = Test System: AMES SALMONELLA TYPHIMURIUM, Strain/Indicator: TA98, Metabolic Activation: NONE, Method: STANDARD PLATE
[2] = Test System: AMES SALMONELLA TYPHIMURIUM, Strain/Indicator: TA100, Metabolic Activation: NONE, Method: STANDARD PLATE

Compound: C=C(Cl)Cl
- mutagenic call (End Point: IN VITRO CHROMOSOMAL ABERRATIONS, Test System: CHINESE HAMSTER LUNG (CHL), Metabolic Activation: NONE): inactive; negative
- mutagenic call (End Point: IN VITRO CHROMOSOMAL ABERRATIONS, Test System: CHINESE HAMSTER LUNG (CHL), Metabolic Activation: RAT. LIVER, S-9, KC-400): active; positive
- mutagenic call (End Point: IN VIVO MICRONUCLEUS, Test System: BONE MARROW POLYCHROMATIC ERYTHROCYTES, Species: MOUSE, Strain/Sex: DDY/MALE, Route: GAVAGE (ORAL) ONCE): inactive; negative
- mutagenic call (End Point: IN VIVO MICRONUCLEUS, Test System: BONE MARROW POLYCHROMATIC ERYTHROCYTES, Species: MOUSE, Strain/Sex: DDY/MALE, Route: GAVAGE (ORAL), 4 DOSES AT 24 HR INTERVALS): inactive; negative
- mutagenic call (End Point: IN VIVO MICRONUCLEUS, Test System: MICRONUCLEATED POLYCHROMATIC ERYTHROCYTES, Species: MOUSE, Strain/Sex: ICR/FEMALE (PREGNANT), Route: IP INJECTION ON 18 D OF GESTATION): inactive; negative
- mutagenic call (Test System: AMES SALMONELLA TYPHIMURIUM, Strain/Indicator: RSJ100, Metabolic Activation: NONE, Method: VAPOR PHASE): inactive; negative
- mutagenic call (Test System: AMES SALMONELLA TYPHIMURIUM, Strain/Indicator: TA97, Metabolic Activation: NONE, Method: STANDARD PLATE): inactive; negative
- mutagenic call (Test System: AMES SALMONELLA TYPHIMURIUM, Strain/Indicator: TA97, Metabolic Activation: RAT, LIVER, S-9, AROCLOR 1254, Method: STANDARD PLATE): active; positive
- mutagenic call [1]: inactive; negative
- mutagenic call (Test System: AMES SALMONELLA TYPHIMURIUM, Strain/Indicator: TA98, Metabolic Activation: RAT, LIVER, S-9, AROCLOR 1254, Method: STANDARD PLATE): active; positive
- mutagenic call (Test System: AMES SALMONELLA TYPHIMURIUM, Strain/Indicator: TA98, Metabolic Activation: RAT, LIVER, S-9, PCB, Method: GAS EXPOSURE): inactive; negative
- mutagenic call (Test System: AMES SALMONELLA TYPHIMURIUM, Strain/Indicator: TA100, Metabolic Activation: MOUSE, LIVER, S-9, PHENOBARBITAL, Method: DESICCATOR): active; positive
- mutagenic call [2]: active; positive
- mutagenic call (Test System: AMES SALMONELLA TYPHIMURIUM, Strain/Indicator: TA100, Metabolic Activation: RAT, LIVER, S-9, AROCLOR 1254, Method: DESICCATOR): active; positive
- mutagenic call (Test System: AMES SALMONELLA TYPHIMURIUM, Strain/Indicator: TA100, Metabolic Activation: RAT, LIVER, S-9, AROCLOR 1254, Method: STANDARD PLATE): active; positive
- mutagenic call (Test System: AMES SALMONELLA TYPHIMURIUM, Strain/Indicator: TA100, Metabolic Activation: RAT, LIVER, S-9, PCB, Method: GAS EXPOSURE): active; positive
- mutagenic call (Test System: AMES SALMONELLA TYPHIMURIUM, Strain/Indicator: TA100, Metabolic Activation: RAT, LIVER, S-9, PHENOBARBITAL, Method: DESICCATOR): active; positive
- mutagenic call (Test System: AMES SALMONELLA TYPHIMURIUM, Strain/Indicator: TA104, Metabolic Activation: NONE, Method: STANDARD PLATE): inactive; negative
- mutagenic call (Test System: AMES SALMONELLA TYPHIMURIUM, Strain/Indicator: TA104, Metabolic Activation: RAT, LIVER, S-9, AROCLOR 1254, Method: STANDARD PLATE): inactive; negative
- mutagenic call (Test System: AMES SALMONELLA TYPHIMURIUM, Strain/Indicator: TA1530, Metabolic Activation: MOUSE, LIVER, S-9, PHENOBARBITAL, Method: DESICCATOR): active; positive
- mutagenic call (Test System: AMES SALMONELLA TYPHIMURIUM, Strain/Indicator: TA1535, Metabolic Activation: HAMSTER, LIVER, S-9, AROCLOR 1254, Method: DESICCATOR): active; positive
- mutagenic call (Test System: AMES SALMONELLA TYPHIMURIUM, Strain/Indicator: TA1535, Metabolic Activation: MOUSE, KIDNEY, S-9, Method: DESICCATOR): active; positive
- mutagenic call (Test System: AMES SALMONELLA TYPHIMURIUM, Strain/Indicator: TA1535, Metabolic Activation: MOUSE, LIVER, S-9, AROCLOR 1254, Method: DESICCATOR): active; positive
- mutagenic call (Test System: AMES SALMONELLA TYPHIMURIUM, Strain/Indicator: TA1535, Metabolic Activation: RAT, LIVER, S-9, AROCLOR 1254, Method: DESICCATOR): active; positive
- mutagenic call (Test System: AMES SALMONELLA TYPHIMURIUM, Strain/Indicator: TA1535, Metabolic Activation: RAT, LIVER, S-9, PCB, Method: GAS EXPOSURE): active; positive
- mutagenic call (Test System: AMES SALMONELLA TYPHIMURIUM, Strain/Indicator: TA1535, Metabolic Activation: RAT, LIVER, S-9, PHENOBARBITAL, Method: DESICCATOR): active; positive
- mutagenic call (Test System: AMES SALMONELLA TYPHIMURIUM, Strain/Indicator: TA1537, Metabolic Activation: RAT, LIVER, S-9, PCB, Method: GAS EXPOSURE): inactive; negative
- mutagenic call (Test System: AMES SALMONELLA TYPHIMURIUM, Strain/Indicator: TA1538, Metabolic Activation: RAT, LIVER, S-9, PCB, Method: GAS EXPOSURE): inactive; negative
- mutagenic call (Test System: AMES SALMONELLA TYPHIMURIUM, Strain/Indicator: TA2637, Metabolic Activation: RAT, LIVER, S-9, PCB, Method: GAS EXPOSURE): inactive; negative
- mutagenic call (Test System: AMES SALMONELLA TYPHIMURIUM, Strain/Indicator: TPT100, Metabolic Activation: NONE, Method: VAPOR PHASE): active; positive
- mutagenic call (Test System: E. COLI, Strain/Indicator: WP2 UVRA (PKM101), Metabolic Activation: RAT, LIVER, S-9, PCB, Method: GAS EXPOSURE): active; positive
- mutagenic call (Test System: E. COLI, Strain/Indicator: WP2 UVRA, Metabolic Activation: RAT, LIVER, S-9, PCB, Method: GAS EXPOSURE): active; positive
- mutagenic call (Test System: MOUSE LYMPHOMA, Strain/Indicator: L5178Y (TK+/TK-), Metabolic Activation: NONE, Method: SUSPENSION/PLATE): inactive; negative
- mutagenic call (Test System: MOUSE LYMPHOMA, Strain/Indicator: L5178Y (TK+/TK-), Metabolic Activation: RAT, LIVER, S-9, Method: SUSPENSION/PLATE): active; positive

Compound: CC(CF)NCC(O)COc1cccc2[nH]c3ccccc3c12 (stereo not given)
- mutagenic call [1]: inactive; negative
- mutagenic call (Test System: AMES SALMONELLA TYPHIMURIUM, Strain/Indicator: TA98, Metabolic Activation: RAT LIVER S-9, AROCLOR 1254, 5%, Method: STANDARD PLATE): inactive; negative
- mutagenic call [2]: active; positive
- mutagenic call (Test System: AMES SALMONELLA TYPHIMURIUM, Strain/Indicator: TA100, Metabolic Activation: RAT LIVER S-9, AROCLOR 1254, 5%, Method: STANDARD PLATE): active; positive
- mutagenic call (Test System: AMES SALMONELLA TYPHIMURIUM, Strain/Indicator: TA1535, Metabolic Activation: NONE, Method: STANDARD PLATE): active; positive
- mutagenic call (Test System: AMES SALMONELLA TYPHIMURIUM, Strain/Indicator: TA1535, Metabolic Activation: RAT LIVER S-9, AROCLOR 1254, 5%, Method: STANDARD PLATE): active; positive
